Reference: PubChem BioAssay (NCI)
Where “and” joins values, the source holds several entries; their conditions need not be identical. Equal values may be shown once.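 96-well plates; 48 h exposure; 5 concentrations. Endpoints by linear interpolation between flanking doses. Not reached: highest tested concentration assigned. GI50 is the concentration that inhibits growth by half. TGI: concentration producing complete growth inhibition.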

Legend:
Test in all cases: NCI tumour cell line growth inhibition, 48 h; in the data active = GI50 below about 0.43 µM; inactive = the rest
OVCAR-8 ovarian = tested on: OVCAR-8 ovarian
NCI/ADR-RES ovarian = tested on: NCI/ADR-RES ovarian
786-0 renal = tested on: 786-0 renal
EKVX NSCLC = tested on: EKVX NSCLC
SNB-19 CNS = tested on: SNB-19 CNS
M14 melanoma = tested on: M14 melanoma
K-562 leukemia = tested on: K-562 leukemia
SK-OV-3 ovarian = tested on: SK-OV-3 ovarian
BT-549 breast = tested on: BT-549 breast
MDA-MB-435 = tested on: MDA-MB-435

O=C(O)Cn1ccnc1[N+](=O)[O-]
> 100 µM: TGI (OVCAR-8 ovarian) | TGI (NCI/ADR-RES ovarian) | TGI (786-0 renal) | TGI (EKVX NSCLC) | TGI (SNB-19 CNS) | TGI (M14 melanoma) | TGI (K-562 leukemia) | TGI (SK-OV-3 ovarian) | TGI (BT-549 breast) | TGI (MDA-MB-435)

COc1ccc2[nH]c(-c3ccccc3)cc2c1
> 100 µM: TGI (OVCAR-8 ovarian) | TGI (NCI/ADR-RES ovarian) | TGI (786-0 renal) | TGI (EKVX NSCLC) | TGI (SNB-19 CNS) | TGI (M14 melanoma) | TGI (K-562 leukemia) | TGI (SK-OV-3 ovarian) | TGI (BT-549 breast) | TGI (MDA-MB-435)
inactive: GI50 (OVCAR-8 ovarian) > 100 µM | GI50 (NCI/ADR-RES ovarian) > 100 µM | GI50 (786-0 renal) > 100 µM | GI50 (EKVX NSCLC) 59 µM | GI50 (SNB-19 CNS) > 100 µM | GI50 (M14 melanoma) > 100 µM | GI50 (K-562 leukemia) 86.8 µM | GI50 (SK-OV-3 ovarian) > 100 µM | GI50 (BT-549 breast) > 100 µM | GI50 (MDA-MB-435) > 100 µM

CN(C)C(=O)SC1=C(c2c(Cl)cccc2Cl)C(=O)c2ccccc21
36.5 µM: TGI (SK-OV-3 ovarian)
17.1 µM: TGI (OVCAR-8 ovarian)
25.8 µM: TGI (NCI/ADR-RES ovarian)
15.9 µM: TGI (MDA-MB-435)
14.8 µM: TGI (K-562 leukemia)
7.79 µM: TGI (M14 melanoma)
23.5 µM: TGI (BT-549 breast)
29.4 µM: TGI (SNB-19 CNS)
40.3 µM: TGI (EKVX NSCLC)
inactive: GI50 (OVCAR-8 ovarian) 6.38 µM | GI50 (NCI/ADR-RES ovarian) 9.42 µM | GI50 (786-0 renal) 10.3 µM | GI50 (EKVX NSCLC) 17.4 µM | GI50 (SNB-19 CNS) 15.8 µM | GI50 (M14 melanoma) 3.03 µM | GI50 (K-562 leukemia) 2.98 µM | GI50 (SK-OV-3 ovarian) 18.6 µM | GI50 (BT-549 breast) 9.78 µM | GI50 (MDA-MB-435) 4.54 µM
22.4 µM: TGI (786-0 renal)

CN(C)CCCC1(c2ccc(F)cc2)OCc2cc(-c3cncc4ccccc34)ccc21 (stereo not given)
18.8 µM: TGI (NCI/ADR-RES ovarian) | TGI (SK-OV-3 ovarian)
9.72 µM: TGI (786-0 renal)
5.17 µM: TGI (K-562 leukemia)
21.2 µM: TGI (EKVX NSCLC)
inactive: GI50 (OVCAR-8 ovarian) 4.48 µM | GI50 (NCI/ADR-RES ovarian) 4.89 µM | GI50 (786-0 renal) 2.71 µM | GI50 (EKVX NSCLC) 8.48 µM | GI50 (SNB-19 CNS) 2.35 µM | GI50 (M14 melanoma) 1.82 µM | GI50 (K-562 leukemia) 2.02 µM | GI50 (SK-OV-3 ovarian) 5.48 µM | GI50 (BT-549 breast) 7.45 µM | GI50 (MDA-MB-435) 1.71 µM
3.77 µM: TGI (M14 melanoma)
20.5 µM: TGI (BT-549 breast)
3.22 µM: TGI (MDA-MB-435)
19.8 µM: TGI (OVCAR-8 ovarian)
7.4 µM: TGI (SNB-19 CNS)

CN(C)CCCN1c2ccccc2Sc2ccc(Cl)cc21
25.1 µM and 22.4 µM: TGI (NCI/ADR-RES ovarian)
4.04 µM and 6.09 µM: TGI (MDA-MB-435)
7.62 µM and 9.3 µM: TGI (SK-OV-3 ovarian)
20.9 µM and 25 µM: TGI (SNB-19 CNS)
15.5 µM and 22.8 µM: TGI (OVCAR-8 ovarian)
3.89 µM and 6.18 µM: TGI (M14 melanoma)
inactive: GI50 (OVCAR-8 ovarian) 4.07 µM and 9.24 µM | GI50 (NCI/ADR-RES ovarian) 11.9 µM and 9.23 µM | GI50 (786-0 renal) 3.81 µM and 12 µM | GI50 (EKVX NSCLC) 12.7 µM and 11.8 µM | GI50 (SNB-19 CNS) 7.01 µM and 11.9 µM | GI50 (M14 melanoma) 2.03 µM and 2.58 µM | GI50 (K-562 leukemia) 3.16 µM | GI50 (SK-OV-3 ovarian) 2.76 µM and 3.22 µM | GI50 (BT-549 breast) 10.9 µM and 11.2 µM | GI50 (MDA-MB-435) 1.94 µM and 2.21 µM
23.5 µM and 24.4 µM: TGI (BT-549 breast)
14.2 µM and 26.6 µM: TGI (786-0 renal)
28.1 µM and 28 µM: TGI (EKVX NSCLC)
11.3 µM: TGI (K-562 leukemia)

CCc1cccc(CC)c1/C=C/c1cncc(C(=O)NC)c1
18.8 µM: TGI (M14 melanoma)
inactive: GI50 (OVCAR-8 ovarian) 15.4 µM | GI50 (NCI/ADR-RES ovarian) 6.71 µM | GI50 (786-0 renal) 14.2 µM | GI50 (EKVX NSCLC) 14.2 µM | GI50 (SNB-19 CNS) 19.7 µM | GI50 (M14 melanoma) 6.57 µM | GI50 (K-562 leukemia) 5.62 µM | GI50 (SK-OV-3 ovarian) 8.75 µM | GI50 (BT-549 breast) 8.95 µM | GI50 (MDA-MB-435) 2.85 µM
10.5 µM: TGI (MDA-MB-435)
> 25 µM: TGI (OVCAR-8 ovarian) | TGI (NCI/ADR-RES ovarian) | TGI (786-0 renal) | TGI (EKVX NSCLC) | TGI (SNB-19 CNS) | TGI (K-562 leukemia) | TGI (SK-OV-3 ovarian) | TGI (BT-549 breast)

CCCn1cnc2c(SCc3ccccc3)nc(N)nc21
> 100 µM: TGI (OVCAR-8 ovarian) | TGI (NCI/ADR-RES ovarian) | TGI (786-0 renal) | TGI (EKVX NSCLC) | TGI (SNB-19 CNS) | TGI (M14 melanoma) | TGI (K-562 leukemia) | TGI (SK-OV-3 ovarian) | TGI (BT-549 breast) | TGI (MDA-MB-435)
inactive: GI50 (OVCAR-8 ovarian) 71.8 µM | GI50 (NCI/ADR-RES ovarian) 63.2 µM | GI50 (786-0 renal) > 100 µM | GI50 (EKVX NSCLC) 67.3 µM | GI50 (SNB-19 CNS) > 100 µM | GI50 (M14 melanoma) > 100 µM | GI50 (K-562 leukemia) 56.8 µM | GI50 (SK-OV-3 ovarian) > 100 µM | GI50 (BT-549 breast) 51.9 µM | GI50 (MDA-MB-435) > 100 µM

CC(C)(C)[Si](C)(C)OCC1OC(n2cnc3c(N)ncnc32)C(O)C1O (stereo not given)
> 100 µM: TGI (OVCAR-8 ovarian) | TGI (NCI/ADR-RES ovarian) | TGI (786-0 renal) | TGI (EKVX NSCLC) | TGI (SNB-19 CNS) | TGI (M14 melanoma) | TGI (K-562 leukemia) | TGI (SK-OV-3 ovarian) | TGI (BT-549 breast) | TGI (MDA-MB-435)

CC[C@H](C)[C@H](NC(=O)[C@H]1CCCCN1C)C(=O)N(C)[C@H](C[C@@H](OC(C)=O)c1nc(C(=O)N[C@@H](Cc2ccccc2)C[C@H](C)C(=O)OC)cs1)C(C)C
active: GI50 (OVCAR-8 ovarian) 0.000473 µM and 0.0025 µM | GI50 (NCI/ADR-RES ovarian) 0.00772 µM | GI50 (786-0 renal) 0.000366 µM and 0.0025 µM | GI50 (EKVX NSCLC) 0.000751 µM and 0.0025 µM | GI50 (SNB-19 CNS) 0.000431 µM and 0.0025 µM | GI50 (M14 melanoma) 0.000331 µM and < 0.0025 µM | GI50 (K-562 leukemia) 0.000278 µM and 0.0025 µM | GI50 (SK-OV-3 ovarian) 0.000264 µM and 0.0025 µM | GI50 (BT-549 breast) 0.000385 µM and < 0.0025 µM | GI50 (MDA-MB-435) < 0.0025 µM
> 25 µM: TGI (OVCAR-8 ovarian) | TGI (EKVX NSCLC) | TGI (SNB-19 CNS) | TGI (K-562 leukemia) | TGI (SK-OV-3 ovarian)
0.0169 µM and < 0.0025 µM: TGI (BT-549 breast)
< 0.0025 µM: TGI (M14 melanoma) | TGI (MDA-MB-435)
14.8 µM: TGI (786-0 renal)

Nc1ccn([C@@H]2C(F)=C(CO)[C@@H](O)[C@H]2O)c(=O)n1
inactive: GI50 (OVCAR-8 ovarian) 0.551 µM | GI50 (NCI/ADR-RES ovarian) 0.578 µM | GI50 (786-0 renal) 0.726 µM | GI50 (EKVX NSCLC) 26.8 µM | GI50 (SNB-19 CNS) 2.81 µM | GI50 (M14 melanoma) 0.859 µM | GI50 (K-562 leukemia) 0.781 µM | GI50 (SK-OV-3 ovarian) 4.95 µM | GI50 (BT-549 breast) 23.5 µM | GI50 (MDA-MB-435) 0.846 µM
> 100 µM: TGI (OVCAR-8 ovarian) | TGI (NCI/ADR-RES ovarian) | TGI (786-0 renal) | TGI (EKVX NSCLC) | TGI (SNB-19 CNS) | TGI (M14 melanoma) | TGI (K-562 leukemia) | TGI (SK-OV-3 ovarian) | TGI (BT-549 breast) | TGI (MDA-MB-435)

CC[C@@]1(O)C(=O)OCc2c1cc1n(c2=O)Cc2cc3c(N)cccc3nc2-1
2.51 µM: TGI (OVCAR-8 ovarian)
> 100 µM: TGI (K-562 leukemia)
1.68 µM: TGI (SK-OV-3 ovarian)
active: GI50 (OVCAR-8 ovarian) 0.0403 µM | GI50 (NCI/ADR-RES ovarian) 0.0158 µM and < 0.0151 µM | GI50 (786-0 renal) 0.0048 µM | GI50 (M14 melanoma) 0.0042 µM | GI50 (K-562 leukemia) 0.0277 µM | GI50 (BT-549 breast) 0.0394 µM
6.05 µM: TGI (SNB-19 CNS)
5.26 µM: TGI (BT-549 breast)
2.08 µM: TGI (NCI/ADR-RES ovarian)
2.16 µM: TGI (MDA-MB-435)
0.0457 µM: TGI (786-0 renal)
7.96 µM: TGI (EKVX NSCLC)
0.292 µM: TGI (M14 melanoma)

O=C(Nc1ccccc1O)c1ccc(CNC(=O)c2ccsc2Nc2ccnc(C(F)(F)F)c2)cc1
19.1 µM: TGI (OVCAR-8 ovarian)
inactive: GI50 (OVCAR-8 ovarian) 1.57 µM | GI50 (NCI/ADR-RES ovarian) 2.23 µM | GI50 (786-0 renal) 2.29 µM | GI50 (EKVX NSCLC) 3.09 µM | GI50 (SNB-19 CNS) 2.97 µM | GI50 (M14 melanoma) 2.61 µM | GI50 (K-562 leukemia) 1.62 µM | GI50 (SK-OV-3 ovarian) 5.59 µM | GI50 (BT-549 breast) 1.89 µM | GI50 (MDA-MB-435) 2.19 µM
6.54 µM: TGI (MDA-MB-435)
7.03 µM: TGI (M14 melanoma)
8.52 µM: TGI (NCI/ADR-RES ovarian)
> 100 µM: TGI (K-562 leukemia)
5.34 µM: TGI (786-0 renal)
45.6 µM: TGI (SK-OV-3 ovarian)
5.04 µM: TGI (BT-549 breast)
13.2 µM: TGI (SNB-19 CNS)
14.5 µM: TGI (EKVX NSCLC)

Cc1cc(=O)oc2cc(OCCn3c(C)nn(-c4ccc(Cl)cc4)c3=O)ccc12
48.8 µM: TGI (SK-OV-3 ovarian)
inactive: GI50 (OVCAR-8 ovarian) 5.17 µM | GI50 (NCI/ADR-RES ovarian) 1.64 µM | GI50 (786-0 renal) 5.7 µM | GI50 (EKVX NSCLC) > 100 µM | GI50 (SNB-19 CNS) 5.37 µM | GI50 (M14 melanoma) 2.36 µM | GI50 (K-562 leukemia) 1.29 µM | GI50 (SK-OV-3 ovarian) 3.36 µM | GI50 (BT-549 breast) 16.5 µM
> 100 µM: TGI (OVCAR-8 ovarian) | TGI (NCI/ADR-RES ovarian) | TGI (786-0 renal) | TGI (EKVX NSCLC) | TGI (SNB-19 CNS) | TGI (M14 melanoma) | TGI (K-562 leukemia)
0.837 µM: TGI (MDA-MB-435)
active: GI50 (MDA-MB-435) 0.269 µM
99.4 µM: TGI (BT-549 breast)
